Test results as given in US10273243B2, “4-phenylpiperidines, their preparation and use” (The Trustees of Columbia University in the City of New York, priority 2013, dated 2019).
Where a name gives a salt, the structure may show the parent alone.

First: O=C(c1n[nH]c2c1CCNC2)N1CCC(c2ccccc2C(F)(F)F)CC1 (as salt: hydrochloride) [Example 16, (4,5,6,7-Tetrahydro-1H-pyrazolo[3,4-c]pyridin-3-yl)(4-(2-(trifluoromethyl)phenyl)piperidin-1-yl)methanone Hydrochloride]
Second: O=C(c1n[nH]c2c1CNCC2)N1CCC(c2ccccc2C(F)(F)F)CC1 [Example 26, (4,5,6,7-Tetrahydro-1H-pyrazolo[4,3-c]pyridin-3-yl)(4-(2-(trifluoromethyl)phenyl)piperidin-1-yl)methanone]
The melting point of the first is higher: 272 to 278 °C for the first, 270 to 272 °C for the second.

Compared with `Cn1nc(C(=O)N2CCC(c3ccccc3C(F)(F)F)CC2)c2c1CCOC2` [Example 1, (1-Methyl-1,4,6,7-tetrahydropyrano[4,3-c]pyrazol-3-yl)(4-(2-(trifluoromethyl)phenyl)piperidin-1-yl)methanone], `Cn1nc(C(=O)N2CCC(c3ccccc3C(F)(F)F)CC2)c2c1CC(C)(C)OC2` [Example 2, (4-(2-(Trifluoromethyl)phenyl)piperidin-1-yl)(1,6,6-trimethyl-1,4,6,7-tetrahydropyrano[4,3-c]pyrazol-3-yl)methanone] is higher in melting point: 44 to 46 °C for the first, 58 to 64 °C for the second.

Compared with `Cn1nc(C(=O)N2CCC(c3ccccc3C(F)(F)F)CC2)c2c1CCS(=O)(=O)C2` [Example 3, (1-methyl-5,5-dioxido-1,4,6,7-tetrahydrothiopyrano[4,3-c]pyrazol-3-yl)(4-(2-(trifluoromethyl)phenyl)piperidin-1-yl)methanone], `CN1CCc2c(C(=O)N3CCC(c4ccccc4C(F)(F)F)CC3)n[nH]c2C1` [Example 19, (6-Methyl-4,5,6,7-tetrahydro-1H-pyrazolo[3,4-c]pyridin-3-yl)(4-(2-(trifluoromethyl)phenyl)piperidin-1-yl)methanone] is lower in melting point: 232 to 234 °C for the first, 115 to 120 °C for the second.

First: CC(=O)N1Cc2[nH]nc(C(=O)N3CCC(c4ccccc4C(F)(F)F)CC3)c2C1 [Example 7, 1-(3-(4-(2-(Trifluoromethyl)phenyl)piperidine-1-carbonyl)pyrrolo[3,4-c]pyrazol-5(1H,4H,6H)-yl)ethanone]
Second: CC(=O)N1CCc2c(C(=O)N3CCC(c4ccccc4C(F)(F)F)CC3)n[nH]c2C1 [Example 17, 1-(3-(4-(2-(Trifluoromethyl)phenyl)piperidine-1-carbonyl)-4,5-dihydro-1H-pyrazolo[3,4-c]pyridin-6(7H)-yl)ethanone]
The melting point of the first is lower: 186 to 192 °C for the first, 202 to 209 °C for the second.

Compared with `CN1CCCc2[nH]nc(C(=O)N3CCC(c4ccccc4C(F)(F)F)CC3)c2C1` [Example 10, (5-Methyl-1,4,5,6,7,8-hexahydropyrazolo[4,3-c]azepin-3-yl)(4-(2-(trifluoromethyl)phenyl)piperidin-1-yl)methanone], `CCN1CCc2[nH]nc(C(=O)N3CCC(c4ccccc4C(F)(F)F)CC3)c2C1` [Example 43, (5-Ethyl-4,5,6,7-tetrahydro-1H-pyrazolo[4,3-c]pyridin-3-yl)(4-(2-(trifluoromethyl)phenyl)piperidin-1-yl)methanone] is higher in melting point: 75 to 85 °C for the first, 159 to 162 °C for the second.

`CS(=O)(=O)N1CCc2c(C(=O)N3CCC(c4ccccc4C(F)(F)F)CC3)n[nH]c2C1` [Example 18, (6-(Methylsulfonyl)-4,5,6,7-tetrahydro-1H-pyrazolo[3,4-c]pyridin-3-yl)(4-(2-(trifluoromethyl)phenyl)piperidin-1-yl)methanone] and `CS(=O)(=O)N1CCc2[nH]nc(C(=O)N3CCC(c4ccccc4C(F)(F)F)CC3)c2C1` [Example 28, (5-(Methylsulfonyl)-4,5,6,7-tetrahydro-1H-pyrazolo[4,3-c]pyridin-3-yl)(4-(2-(trifluoromethyl)phenyl)piperidin-1-yl)methanone] cannot be ordered by melting point: 242 to 245 °C for the first, 240 to 243 °C for the second.

First: Cn1nc(C(=O)N2CCC(c3ccccc3C(F)(F)F)CC2)c2cc(F)ccc21 [Example 21, (5-Fluoro-1-methyl-1H-indazol-3-yl)(4-(2-(trifluoromethyl)phenyl)piperidin-1-yl)methanone]
Second: N#Cc1ccc2[nH]nc(C(=O)N3CCC(c4ccccc4C(F)(F)F)CC3)c2c1 [Example 36, 3-(4-(2-(Trifluoromethyl)phenyl)piperidine-1-carbonyl)-1H-indazole-5-carbonitrile]
The melting point of the first is lower: 161 to 163 °C for the first, 249 to 252 °C for the second.

First: CC(=O)N1CCc2[nH]nc(C(=O)N3CCC(c4ccccc4C(F)(F)F)CC3)c2C1 [Example 27, 1-(3-(4-(2-(Trifluoromethyl)phenyl)piperidine-1-carbonyl)-6,7-dihydro-1H-pyrazolo[4,3-c]pyridin-5(4H)-yl)ethanone]
Second: CCC(=O)N1CCc2[nH]nc(C(=O)N3CCC(c4ccccc4C(F)(F)F)CC3)c2C1 [Example 44, 1-(3-(4-(2-(Trifluoromethyl)phenyl)piperidine-1-carbonyl)-6,7-dihydro-1H-pyrazolo[4,3-c]pyridin-5(4H)-yl)propan-1-one]
The melting point of the first is higher: 208 to 211 °C for the first, 153 to 155 °C for the second.

Compared with `O=C(c1n[nH]c2ncccc12)N1CCC(c2ccccc2C(F)(F)F)CC1` [Example 30, (1H-pyrazolo[3,4-b]pyridin-3-yl)(4-(2-(trifluoromethyl)phenyl)piperidin-1-yl)methanone], `O=C(c1n[nH]c2cc(F)c(F)cc12)N1CCC(c2ccccc2C(F)(F)F)CC1` [Example 34, (5,6-Difluoro-1H-indazol-3-yl)(4-(2-(trifluoromethyl)phenyl)piperidin-1-yl)methanone] is higher in melting point: 202 to 205 °C for the first, 233 to 235 °C for the second.

First: CCS(=O)(=O)N1CCc2[nH]nc(C(=O)N3CCC(c4ccccc4C(F)(F)F)CC3)c2C1 [Example 37, (5-(Ethylsulfonyl)-4,5,6,7-tetrahydro-1H-pyrazolo[4,3-c]pyridin-3-yl)(4-(2-(trifluoromethyl)phenyl)piperidin-1-yl)methanone]
Second: CC(C)CS(=O)(=O)N1CCc2[nH]nc(C(=O)N3CCC(c4ccccc4C(F)(F)F)CC3)c2C1 [Example 38, (5-(Isobutylsulfonyl)-4,5,6,7-tetrahydro-1H-pyrazolo[4,3-c]pyridin-3-yl)(4-(2-(trifluoromethyl)phenyl)piperidin-1-yl)methanone]
The melting point of the first is higher: 187 to 189 °C for the first, 178 to 180 °C for the second.

First: CC(C)S(=O)(=O)N1CCc2[nH]nc(C(=O)N3CCC(c4ccccc4C(F)(F)F)CC3)c2C1 [Example 39, (5-(Isopropylsulfonyl)-4,5,6,7-tetrahydro-1H-pyrazolo[4,3-c]pyridin-3-yl)(4-(2-(trifluoromethyl)phenyl)piperidin-1-yl)methanone]
Second: CC(C)S(=O)(=O)N1CCc2c(C(=O)N3CCC(c4ccccc4C(F)(F)F)CC3)n[nH]c2C1 [Example 51, (6-(Isopropylsulfonyl)-4,5,6,7-tetrahydro-1H-pyrazolo[3,4-c]pyridin-3-yl)(4-(2-(trifluoromethyl)phenyl)piperidin-1-yl)methanone]
The melting point of the first is lower: 199 to 201 °C for the first, 220 to 222 °C for the second.

First: CC(C)(C)C(=O)N1CCc2[nH]nc(C(=O)N3CCC(c4ccccc4C(F)(F)F)CC3)c2C1 [Example 40, 2,2-Dimethyl-1-(3-(4-(2-(trifluoromethyl)phenyl)piperidine-1-carbonyl)-6,7-dihydro-1H-pyrazolo[4,3-c]pyridin-5(4H)-yl)propan-1-one]
Second: CC(C)C(=O)N1CCc2[nH]nc(C(=O)N3CCC(c4ccccc4C(F)(F)F)CC3)c2C1 [Example 41, 2-Methyl-1-(3-(4-(2-(trifluoromethyl)phenyl)piperidine-1-carbonyl)-6,7-dihydro-1H-pyrazolo[4,3-c]pyridin-5(4H)-yl)propan-1-one]
The melting point of the first is higher: 126 to 128 °C for the first, 112 to 114 °C for the second.

Compared with `CC(C)CC(=O)N1CCc2[nH]nc(C(=O)N3CCC(c4ccccc4C(F)(F)F)CC3)c2C1` [Example 42, 3-Methyl-1-(3-(4-(2-(trifluoromethyl)phenyl)piperidine-1-carbonyl)-6,7-dihydro-1H-pyrazolo[4,3-c]pyridin-5(4H)-yl)butan-1-one], `COCC(=O)N1CCc2[nH]nc(C(=O)N3CCC(c4ccccc4C(F)(F)F)CC3)c2C1` [Example 48, 2-Methoxy-1-(3-(4-(2-(trifluoromethyl)phenyl)piperidine-1-carbonyl)-6,7-dihydro-1H-pyrazolo[4,3-c]pyridin-5(4H)-yl)ethanone] is higher in melting point: 107 to 109 °C for the first, 192 to 194 °C for the second.

First: CC(C)CN1CCc2[nH]nc(C(=O)N3CCC(c4ccccc4C(F)(F)F)CC3)c2C1 [Example 45, (5-Isobutyl-4,5,6,7-tetrahydro-1H-pyrazolo[4,3-c]pyridin-3-yl)(4-(2-(trifluoromethyl)phenyl)piperidin-1-yl)methanone]
Second: CC(C)C(=O)N1CCc2c(C(=O)N3CCC(c4ccccc4C(F)(F)F)CC3)n[nH]c2C1 [Example 52, 2-Methyl-1-(3-(4-(2-(trifluoromethyl)phenyl)piperidine-1-carbonyl)-4,5-dihydro-1H-pyrazolo[3,4-c]pyridin-6(7H)-yl)propan-1-one]
The melting point of the first is lower: 105 to 107 °C for the first, 200 to 203 °C for the second.

Compared with `O=C(c1n[nH]c2c1CN(C1COC1)CC2)N1CCC(c2ccccc2C(F)(F)F)CC1` [Example 46, (5-(Oxetan-3-yl)-4,5,6,7-tetrahydro-1H-pyrazolo[4,3-c]pyridin-3-yl)(4-(2-(trifluoromethyl)phenyl)piperidin-1-yl)methanone], `CCC(=O)N1CCc2c(C(=O)N3CCC(c4ccccc4C(F)(F)F)CC3)n[nH]c2C1` [Example 49, 1-(3-(4-(2-(Trifluoromethyl)phenyl)piperidine-1-carbonyl)-4,5-dihydro-1H-pyrazolo[3,4-c]pyridin-6(7H)-yl)propan-1-one] is higher in melting point: 107 to 110 °C for the first, 162 to 164 °C for the second.

First: O=C(CC(F)(F)F)N1CCc2[nH]nc(C(=O)N3CCC(c4ccccc4C(F)(F)F)CC3)c2C1 [Example 47, 3,3,3-Trifluoro-1-(3-(4-(2-(trifluoromethyl)phenyl)piperidine-1-carbonyl)-6,7-dihydro-1H-pyrazolo[4,3-c]pyridin-5(4H)-yl)propan-1-one]
Second: CCC(=O)N1Cc2[nH]nc(C(=O)N3CCC(c4ccccc4C(F)(F)F)CC3)c2C1 [Example 53, 1-(3-(4-(2-(Trifluoromethyl)phenyl)piperidine-1-carbonyl)pyrrolo[3,4-c]pyrazol-5(1H,4H,6H)-yl)propan-1-one]
The melting point of the first is lower: 127 to 130 °C for the first, 216 to 219 °C for the second.

With `CC(C)C(=O)N1Cc2[nH]nc(C(=O)N3CCC(c4ccccc4C(F)(F)F)CC3)c2C1` [Example 54] the melting point was 192 to 195 °C.
